According to BindingDB's records for patent US20230348456 (Repare Therapeutics, 2023):

What follows are compounds tested against T1, Membrane-associated tyrosine- and threonine-specific cdc2-inhibitory kinase (Homo sapiens, UniProt Q99640) (assay: Enzymatic Assay).
T1 sequence (Q99640 whole entry): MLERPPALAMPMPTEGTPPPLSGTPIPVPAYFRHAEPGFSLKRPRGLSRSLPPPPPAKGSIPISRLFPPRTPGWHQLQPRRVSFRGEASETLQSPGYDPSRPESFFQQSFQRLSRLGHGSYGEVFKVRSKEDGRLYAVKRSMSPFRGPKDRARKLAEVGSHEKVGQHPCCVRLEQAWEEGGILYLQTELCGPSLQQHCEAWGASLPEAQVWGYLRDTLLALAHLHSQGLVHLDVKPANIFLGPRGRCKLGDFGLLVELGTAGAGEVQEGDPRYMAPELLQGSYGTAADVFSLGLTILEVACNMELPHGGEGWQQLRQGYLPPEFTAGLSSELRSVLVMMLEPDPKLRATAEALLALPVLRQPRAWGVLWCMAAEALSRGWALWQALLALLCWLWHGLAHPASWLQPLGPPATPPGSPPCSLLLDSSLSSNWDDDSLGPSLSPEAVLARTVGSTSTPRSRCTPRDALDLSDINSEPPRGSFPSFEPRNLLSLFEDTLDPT
Protocol: Detection of Myt1 kinase activity utilized a recombinant human Myt1 kinase assay measuring the hydrolysis of ATP using a commercially available ADP-Glo Assay (ADP-Glo Kinase Assay from Promega, 10 000 assays, #V9102). Briefly, 5 μL recombinant human Myt1 (full length PKMYT1 recombinant human protein expressed in insect cells from Thermo Fisher #A33387; 80% purity) was prepared in reaction buffer (70 mM HEPES, 3 mM MgCl2, 3 mM MnCl2, 50 μg/ml PEG 20000, 3 μM Na-orthovanadate, 1.2 mM DTT) and added to 384 well white polystyrene, flat bottom well, non-treated, microplate (Corning #3572). After this, 5 μL of compounds (diluted in reaction buffer to 0.5% DMSO) was added to the microplate and the plate was spun briefly and incubated at 22 C. for 15 minutes. Ultra-Pure Adenosine Triphosphate (ATP) solution (ADP-Glo kit from Promega) was diluted in reaction buffer and 5 μL was added to the microplate, spun down briefly and incubated for 60 minutes at 30 C. The final Myt1 enzyme concentration was 18 nM and the final ATP concentration was 10 μM. After the 60-minute incubation, 15 μL of ADP-Glo reagent was added and the plate was spun briefly and sealed and incubated in the dark for 40 minutes at 22 C. Following this, 30 μL of kinase detection reagent was added per well and the plate was spun briefly, sealed and incubated for 45-60 minutes at 22 C. in the dark. Luminescence was read using the Envision (250 ms integration). T

SMILES | IC50 [nM]
Nc1c(-c2cccc3[nH]ncc23)cc(Br)c2nc(-c3ccc(N4CCC5(CC4)COC5)nc3)[nH]c(=O)c12 [US20230348456, Compound 34] | 10
Nc1c(-c2cccc3[nH]ncc23)cc(-n2cccn2)c2nc(-c3ccncc3)[nH]c(=O)c12 [US20230348456, Compound 77] | 4
Nc1c(-c2cccc3[nH]ncc23)cc(-c2cccc(OC3CCOCC3)c2)c2nc(-c3ccncc3)[nH]c(=O)c12 [US20230348456, Compound 65] | 4
Nc1ccc(-c2nc3c(Br)cc(-c4cccc5[nH]ncc45)c(N)c3c(=O)[nH]2)cn1 [US20230348456, Compound 7] | 4
Nc1c(-c2cccc3[nH]ncc23)cc(-c2nccs2)c2nc(-c3ccc(CN4CCOCC4)cc3)[nH]c(=O)c12 [US20230348456, Compound 39] | 8
